In PubChem BioAssay (NCI):
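Compound exposure: 48 hours, 5 concentrations, 96-well plates. TGI: total growth inhibition.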

How the values were obtained:
Assay in all cases: DTP human tumour cell line panel, 48 h
XF 498 CNS = system: XF 498 CNS
U251 CNS = system: U251 CNS
NCI-H23 lung = system: NCI-H23 lung
RPMI-8226 leukemia = system: RPMI-8226 leukemia
RXF 393 renal = system: RXF 393 renal
HOP-18 NSCLC = system: HOP-18 NSCLC
SR leukemia = system: SR leukemia
HCT-15 colon = system: HCT-15 colon
OVCAR-8 ovarian = system: OVCAR-8 ovarian
A549 NSCLC = system: A549 NSCLC
HT29 colon = system: HT29 colon
MOLT-4 leukemia = system: MOLT-4 leukemia
SW-620 colon = system: SW-620 colon
SNB-75 CNS = system: SNB-75 CNS
CAKI-1 renal = system: CAKI-1 renal
OVCAR-5 ovarian = system: OVCAR-5 ovarian
UACC-62 melanoma = system: UACC-62 melanoma
NCI-H226 lung = system: NCI-H226 lung
TK-10 renal = system: TK-10 renal
SN12C renal = system: SN12C renal
DMS 273 small cell lung = system: DMS 273 small cell lung
KM20L2 colon = system: KM20L2 colon
HL-60(TB) leukemia = system: HL-60(TB) leukemia
EKVX NSCLC = system: EKVX NSCLC
OVCAR-4 ovarian = system: OVCAR-4 ovarian
UO-31 renal = system: UO-31 renal
SF-295 CNS = system: SF-295 CNS
A498 renal = system: A498 renal
DLD-1 colon = system: DLD-1 colon
ACHN renal = system: ACHN renal
HCC-2998 colon = system: HCC-2998 colon
SK-MEL-28 melanoma = system: SK-MEL-28 melanoma
SNB-78 CNS = system: SNB-78 CNS
COLO 205 colon = system: COLO 205 colon
CCRF-CEM leukemia = system: CCRF-CEM leukemia
LXFL 529 NSCLC = system: LXFL 529 NSCLC
HCT-116 colon = system: HCT-116 colon
HOP-62 NSCLC = system: HOP-62 NSCLC
LOX IMVI melanoma = system: LOX IMVI melanoma
UACC-257 melanoma = system: UACC-257 melanoma
K-562 leukemia = system: K-562 leukemia
SF-539 CNS = system: SF-539 CNS
SK-MEL-2 melanoma = system: SK-MEL-2 melanoma
M19-MEL melanoma = system: M19-MEL melanoma
SNB-19 CNS = system: SNB-19 CNS
SK-MEL-5 melanoma = system: SK-MEL-5 melanoma
M14 melanoma = system: M14 melanoma
786-0 renal = system: 786-0 renal
SK-OV-3 ovarian = system: SK-OV-3 ovarian
HOP-92 NSCLC = system: HOP-92 NSCLC
SF-268 CNS = system: SF-268 CNS
MALME-3M melanoma = system: MALME-3M melanoma
NCI-H522 lung = system: NCI-H522 lung
IGROV1 ovarian = system: IGROV1 ovarian
NCI-H460 lung = system: NCI-H460 lung
DMS 114 small cell lung = system: DMS 114 small cell lung

**Q.** Which TGI (XF 498 CNS) does the source give for `O=C1C(Cl)=C(Cl)C(=O)N1C1C2CC3CC(C2)CC1C3` (stereo unspecified) here?
**A.** The TGI was > 100 µM.

**Q.** And the TGI (U251 CNS)?
**A.** Its TGI is > 100 µM.

**Q.** What about the TGI (NCI-H23 lung) of the same molecule?
**A.** The TGI was > 100 µM.

**Q.** What about the TGI (RPMI-8226 leukemia) of the same molecule?
**A.** Its TGI is > 80.5 µM.

**Q.** What about the TGI (RXF 393 renal) of the same molecule?
**A.** Its TGI is > 100 µM.

**Q.** What about the TGI (HOP-18 NSCLC) of the same molecule?
**A.** The TGI was > 100 µM.

**Q.** And the TGI (SR leukemia)?
**A.** Its TGI is > 100 µM.

**Q.** What about the TGI (HCT-15 colon) of the same molecule?
**A.** Its TGI is > 100 µM.

**Q.** What about the TGI (OVCAR-8 ovarian) of the same molecule?
**A.** Its TGI is > 100 µM.

**Q.** What about the TGI (A549 NSCLC) of the same molecule?
**A.** The TGI was > 100 µM.

**Q.** What about the TGI (HT29 colon) of the same molecule?
**A.** Its TGI is > 100 µM.

**Q.** And the TGI (MOLT-4 leukemia)?
**A.** Its TGI is > 83.3 µM.

**Q.** And the TGI (SW-620 colon)?
**A.** Its TGI is > 100 µM.

**Q.** What about the TGI (SNB-75 CNS) of the same molecule?
**A.** Its TGI is > 100 µM.

**Q.** What about the TGI (CAKI-1 renal) of the same molecule?
**A.** Its TGI is > 66.9 µM.

**Q.** And the TGI (OVCAR-5 ovarian)?
**A.** Its TGI is > 100 µM.

**Q.** And the TGI (UACC-62 melanoma)?
**A.** The TGI was > 100 µM.

**Q.** What about the TGI (NCI-H226 lung) of the same molecule?
**A.** The TGI was > 100 µM.

**Q.** What about the TGI (TK-10 renal) of the same molecule?
**A.** The TGI was > 100 µM.

**Q.** And the TGI (SN12C renal)?
**A.** The TGI was > 100 µM.

**Q.** What about the TGI (DMS 273 small cell lung) of the same molecule?
**A.** The TGI was > 100 µM.

**Q.** What about the TGI (KM20L2 colon) of the same molecule?
**A.** Its TGI is > 100 µM.

**Q.** What about the TGI (HL-60(TB) leukemia) of the same molecule?
**A.** The TGI was 79.4 µM.

**Q.** What about the TGI (EKVX NSCLC) of the same molecule?
**A.** The TGI was > 100 µM.

**Q.** And the TGI (OVCAR-4 ovarian)?
**A.** The TGI was > 100 µM.

**Q.** And the TGI (UO-31 renal)?
**A.** Its TGI is > 100 µM.

**Q.** What about the TGI (SF-295 CNS) of the same molecule?
**A.** The TGI was > 100 µM.

**Q.** What about the TGI (A498 renal) of the same molecule?
**A.** The TGI was > 100 µM.

**Q.** And the TGI (DLD-1 colon)?
**A.** The TGI was > 100 µM.

**Q.** And the TGI (ACHN renal)?
**A.** The TGI was > 100 µM.

**Q.** And the TGI (HCC-2998 colon)?
**A.** The TGI was > 100 µM.

**Q.** What about the TGI (SK-MEL-28 melanoma) of the same molecule?
**A.** The TGI was > 100 µM.

**Q.** And the TGI (SNB-78 CNS)?
**A.** Its TGI is > 100 µM.

**Q.** And the TGI (COLO 205 colon)?
**A.** Its TGI is > 100 µM.

**Q.** And the TGI (CCRF-CEM leukemia)?
**A.** The TGI was 64.7 µM.

**Q.** What about the TGI (LXFL 529 NSCLC) of the same molecule?
**A.** The TGI was > 100 µM.

**Q.** And the TGI (HCT-116 colon)?
**A.** Its TGI is > 100 µM.

**Q.** What about the TGI (HOP-62 NSCLC) of the same molecule?
**A.** Its TGI is > 100 µM.

**Q.** And the TGI (LOX IMVI melanoma)?
**A.** The TGI was > 100 µM.

**Q.** And the TGI (UACC-257 melanoma)?
**A.** The TGI was > 100 µM.

**Q.** What about the TGI (K-562 leukemia) of the same molecule?
**A.** Its TGI is > 92.2 µM.

**Q.** And the TGI (SF-539 CNS)?
**A.** Its TGI is > 100 µM.

**Q.** What about the TGI (SK-MEL-2 melanoma) of the same molecule?
**A.** Its TGI is > 100 µM.

**Q.** What about the TGI (M19-MEL melanoma) of the same molecule?
**A.** Its TGI is > 100 µM.

**Q.** And the TGI (SNB-19 CNS)?
**A.** Its TGI is > 100 µM.

**Q.** And the TGI (SK-MEL-5 melanoma)?
**A.** The TGI was > 100 µM.

**Q.** And the TGI (M14 melanoma)?
**A.** Its TGI is > 100 µM.

**Q.** What about the TGI (786-0 renal) of the same molecule?
**A.** Its TGI is > 100 µM.

**Q.** What about the TGI (SK-OV-3 ovarian) of the same molecule?
**A.** The TGI was > 100 µM.

**Q.** And the TGI (HOP-92 NSCLC)?
**A.** The TGI was > 100 µM.

**Q.** And the TGI (SF-268 CNS)?
**A.** The TGI was > 100 µM.

**Q.** And the TGI (MALME-3M melanoma)?
**A.** Its TGI is > 100 µM.

**Q.** And the TGI (NCI-H522 lung)?
**A.** Its TGI is > 64.5 µM.

**Q.** And the TGI (IGROV1 ovarian)?
**A.** The TGI was > 100 µM.

**Q.** What about the TGI (NCI-H460 lung) of the same molecule?
**A.** Its TGI is > 100 µM.

**Q.** And the TGI (DMS 114 small cell lung)?
**A.** The TGI was > 100 µM.
